# Test results taken from US6858589B2, “Methods of and compositions for potentiating the action of agents active on cell wall sites of the susceptible bacteria” (priority 1996, dated 2005).
# How the values were obtained:
# [1] = tested on: E. coli NCTC 10418; assay: Kill kinetics and regrowth of E. coli after gentamicin bolus pre-exposure followed by maintained cephazolin; assay type: cell-based, Escherichia coli; details: then cephazolin 0 mg/L
# From the text: In comparative experiments described in the examples herein, a reference strain of Escherichi coli (E. coli NCTC 10418) was exposed to constant concentrations of cephazolin in the culture medium (see FIGS. 1A and IIA).
# (§1) The experimental work described herein involved testing bacterial response while changing aminoglycoside concentrations with time in the test tube, and mimics closely measurements made in man under clinical conditions (Bastone E B, Li S C, Ioannides-Demos L L, Spicer J., McLean A J, “Kill kinetics and regrowth patterns of E. coli exposed to gentamicin concentration-time profiles simulating in vivo bolus or infusion dosing”, Antimicrob Agents Chemother. 37:914-917, 1993).
# The form of this profile is governed in vivo by distribution into tissue from the central circulation. In in vitro experiments, gentamicin was removed (T=0 time) by centrifugation and washing with antibiotic-free medium. The incubation was reconstituted with media containing 0 mg/l, 1 mg/l or 2 mg/l cephazolin (see FIG. IA).
# In FIG. IB, it can be seen that the pattern of growth of control organisms (not exposed to antibiotic) is designated by the dotted line ( - - - ), while the growth patterns of test organisms are represented by the solid lines with symbols indicating each type of treatment or test (FIG. IB).
# [2] = tested on: E. coli NCTC 10418; assay: E. coli counts after gentamicin profile (peak 4 mg/l, then reconstituted maintained concentration); assay type: cell-based, Escherichia coli
# Method: The aminoglycoside reached a peak concentration of 4 mg/l 30 minutes post-dose and was removed from the E. coli culture by washing. Medium containing 0, 2, 2.5 and 3 mg/l gentamicin was reconstituted and added to the culture at 1 hour after initial exposure to the aminoglycoside (n=6).
# as §1
# With each antibiotic, concentration-time profiles similar to those observed in the blood of clinical patients following conventional intravenous dosing of an aminoglycoside (gentamicin) and pump-driven profiles of gentamicin and cephalosporin (cephazolin) were attained. The concentration-time profiles for each drug class have the general form shown in FIG. IA and FIG. IIIA of the accompanying drawings. Additionally a gentamicin profile of the form shown in FIG. IIIA was generated, which reached a peak of 12 mg/l over 3 hours, was maintained at 12 mg/l for a further hour, then was reconstituted to a range of steady-state concentrations (0, 0.5, 1.0, 2.0, 3.0, 4.0 mg/l) to yield the experimental results shown in Table 4. […]
substance,measurement,setting,value
gentamicin,BACTERIAL COUNTS,"[1]; 8 mg/L bolus gentamicin, 2 h",1.32 ± 0.69 log10 cfu/mL
same,BACTERIAL COUNTS,"[1]; 8 mg/L bolus gentamicin, 8 h",4.91 ± 0.70 log10 cfu/mL
same,BACTERIAL COUNTS,"[1]; 8 mg/L bolus gentamicin, 24 h",8.88 ± 0.11 log10 cfu/mL
same,BACTERIAL COUNTS,"[1]; 8 mg/L bolus gentamicin, −0.5 h",5.87 ± 0.35 log10 cfu/mL
same,BACTERIAL COUNTS,"[1]; 12 mg/L bolus gentamicin, 2 h",0.69 ± 0.87 log10 cfu/mL
same,BACTERIAL COUNTS,"[1]; 12 mg/L bolus gentamicin, 8 h",4.54 ± 1.15 log10 cfu/mL
same,BACTERIAL COUNTS,"[1]; 12 mg/L bolus gentamicin, 24 h",8.80 ± 0.05 log10 cfu/mL
same,BACTERIAL COUNTS,"[1]; 12 mg/L bolus gentamicin, −0.5 h",6.10 ± 0.26 log10 cfu/mL
same,BACTERIAL COUNTS,"[1]; 16 mg/L bolus gentamicin, 2 h",0.48 ± 0.76 log10 cfu/mL
same,BACTERIAL COUNTS,"[1]; 16 mg/L bolus gentamicin, 8 h",3.85 ± 1.24 log10 cfu/mL
same,BACTERIAL COUNTS,"[1]; 16 mg/L bolus gentamicin, 24 h",8.79 ± 0.05 log10 cfu/mL
same,BACTERIAL COUNTS,"[1]; 16 mg/L bolus gentamicin, −0.5 h",5.85 ± 0.050 log10 cfu/mL
same,BACTERIAL COUNTS,"[1]; 20 mg/L bolus gentamicin, 2 h",NGD
same,BACTERIAL COUNTS,"[1]; 20 mg/L bolus gentamicin, 8 h",3.15 ± 0.734 log10 cfu/mL
same,BACTERIAL COUNTS,"[1]; 20 mg/L bolus gentamicin, 24 h",8.81 ± 0.04 log10 cfu/mL
same,BACTERIAL COUNTS,"[1]; 20 mg/L bolus gentamicin, −0.5 h",5.89 ± 0.03 log10 cfu/mL
same,BACTERIAL COUNTS,"[2]; peak 4 mg/liter, reconstituted to 3.0 mg/liter at 1 hr, maintained 0 hr (control), 3 hr",3.05 ± 0.33 log ^10 (CFU/mL)
same,BACTERIAL COUNTS,"[2]; peak 4 mg/liter, reconstituted to 3.0 mg/liter at 1 hr, maintained 0 hr (control), 11 hr",8.89 ± 0.20 log ^10 (CFU/mL)
same,BACTERIAL COUNTS,"[2]; peak 4 mg/liter, reconstituted to 3.0 mg/liter at 1 hr, maintained 0 hr (control), 25 hr",9.07 ± 0.12 log ^10 (CFU/mL)
same,BACTERIAL COUNTS,"[2]; peak 4 mg/liter, reconstituted to 3.0 mg/liter at 1 hr, maintained 0 hr (control), 49 hr",9.01 ± 0.06 log ^10 (CFU/mL)
same,BACTERIAL COUNTS,"[2]; peak 4 mg/liter, reconstituted to 3.0 mg/liter at 1 hr, maintained 2 hr, 3 hr",0.17 ± 0.41 log ^10 (CFU/mL)
same,BACTERIAL COUNTS,"[2]; peak 4 mg/liter, reconstituted to 3.0 mg/liter at 1 hr, maintained 2 hr, 11 hr",0.55 ± 0.61 log ^10 (CFU/mL)
same,BACTERIAL COUNTS,"[2]; peak 4 mg/liter, reconstituted to 3.0 mg/liter at 1 hr, maintained 2 hr, 25 hr",7.95 ± 0.54 log ^10 (CFU/mL)
same,BACTERIAL COUNTS,"[2]; peak 4 mg/liter, reconstituted to 3.0 mg/liter at 1 hr, maintained 2 hr, 49 hr",8.89 ± 0.19 log ^10 (CFU/mL)
same,BACTERIAL COUNTS,"[2]; peak 4 mg/liter, reconstituted to 3.0 mg/liter at 1 hr, maintained 4 hr, 3 hr",0.17 ± 0.41 log ^10 (CFU/mL)
same,BACTERIAL COUNTS,"[2]; peak 4 mg/liter, reconstituted to 3.0 mg/liter at 1 hr, maintained 4 hr, 11 hr",0.17 ± 0.41 log ^10 (CFU/mL)
same,BACTERIAL COUNTS,"[2]; peak 4 mg/liter, reconstituted to 3.0 mg/liter at 1 hr, maintained 4 hr, 25 hr",5.18 ± 4.02 log ^10 (CFU/mL)
same,BACTERIAL COUNTS,"[2]; peak 4 mg/liter, reconstituted to 3.0 mg/liter at 1 hr, maintained 4 hr, 49 hr",5.99 ± 4.64 log ^10 (CFU/mL)
same,BACTERIAL COUNTS,"[2]; peak 4 mg/liter, reconstituted to 3.0 mg/liter at 1 hr, maintained 8 hr, 3 hr",0.33 ± 0.52 log ^10 (CFU/mL)
same,BACTERIAL COUNTS,"[2]; peak 4 mg/liter, reconstituted to 3.0 mg/liter at 1 hr, maintained 8 hr, 11 hr",NGD
same,BACTERIAL COUNTS,"[2]; peak 4 mg/liter, reconstituted to 3.0 mg/liter at 1 hr, maintained 8 hr, 25 hr",NGD
same,BACTERIAL COUNTS,"[2]; peak 4 mg/liter, reconstituted to 3.0 mg/liter at 1 hr, maintained 8 hr, 49 hr",NGD
same,BACTERIAL COUNTS,"[2]; post-distribution peak 4 mg/liter, reconstituted at 1 hr to 0 mg/liter, 3 hr",3.96 ± 0.70 log ^10 (CFU/mL)
same,BACTERIAL COUNTS,"[2]; post-distribution peak 4 mg/liter, reconstituted at 1 hr to 0 mg/liter, 11 hr",9.24 ± 0.34 log ^10 (CFU/mL)
same,BACTERIAL COUNTS,"[2]; post-distribution peak 4 mg/liter, reconstituted at 1 hr to 0 mg/liter, 25 hr",9.15 ± 0.17 log ^10 (CFU/mL)
same,BACTERIAL COUNTS,"[2]; post-distribution peak 4 mg/liter, reconstituted at 1 hr to 0 mg/liter, 49 hr",8.93 ± 0.12 log ^10 (CFU/mL)
same,BACTERIAL COUNTS,"[2]; post-distribution peak 4 mg/liter, reconstituted at 1 hr to 2.0 mg/liter, 3 hr",1.92 ± 1.21 log ^10 (CFU/mL)
